In patent publication US9416162B2, “Peptides having reduced toxicity that stimulate cholesterol efflux” (The Regents of the University of California, priority 2013, dated 2016):
Non-standard residues stand in square brackets, D forms with d. No end group written: not given here. Cit = NC(=O)NCCC[C@H](N)C(=O)O

Test system: apoE−/− mice
Test: Atherosclerosis in apoE−/− mice on high-fat western diet, whole aorta Oil-Red O staining
Format: in vivo, mouse
Conditions: IP 30 mg/kg at 48 hour intervals for 6 weeks
Protocol: Male apoE^−/− mice at 8 weeks of age were fed a high-fat western diet for 14 weeks. Mice were subsequently randomized to either a control group to receive IP injection of vehicle alone or lipid-free peptide (30 mg/kg) at 48 hour intervals for 6 weeks. […] The extent of whole aorta covered with fatty lesions is shown, determined by Oil-Red O staining. Values are means±SD, n=10 mice per group.
CS6253, another synthesis batch of T5237-4, was administered IP at 10 mg/kg for 10 weeks showing again reduction of substantial atherosclerosis in apoE^−/− mice (FIG. 36). Male apoE^−/− mice at 8 weeks of age were fed a high-fat western diet for 14 weeks. Mice were subsequently randomized to either a control group to receive IP injection of vehicle alone or lipid-free CS6253 (10 mg/kg) at 48 hour intervals for 10 weeks while the mice remained on high-fat western diet. The extent of whole aorta covered with fatty lesions is shown, determined by Oil-Red O staining. Values are means±SD, n=10 mice per group.
CS6253 administered SC also reduce substantial atherosclerosis in apoE KO mice. Male apoE−/− mice at 8 weeks of age were fed a high-fat western diet for 14 weeks (FIG. 37). One group was terminated before treatment start as baseline control. Mice were subsequently randomized to one of 3 arms to receive subcutaneous (SC) injection alternate days for 6 weeks; vehicle alone, CS6253 30 mg/kg or CS6253 60 mg/kg. During the first 4 treatment weeks the mice remained on high-fat western diet while during the last two weeks of treatment they were switched to chow diet. The extent of whole aorta covered with fatty lesions is shown, determined by Oil-Red O staining. Values are means±SD, n=10 mice per group.

Substance: T5460-1: citrulline form of LeuATI-5261 possessing a single R3→Citrulline substitution (EV[Cit]SKLEEWLAALRELAEELLARLKS)
- extent of whole aorta covered with fatty lesions: reduced atherosclerosis
